Results: PubChem BioAssay (NCI)
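48-hour exposure; five concentrations; linearly interpolated endpoints. Abbreviation: GI50, concentration required for 50% inhibition of growth. TGI: concentration producing complete growth inhibition.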

Legend:
Assay in all cases: NCI tumour cell line growth inhibition, 48 h
NCI-H226 lung = system: NCI-H226 lung
SF-268 CNS = system: SF-268 CNS
UO-31 renal = system: UO-31 renal
OVCAR-8 ovarian = system: OVCAR-8 ovarian
SR leukemia = system: SR leukemia
HT29 colon = system: HT29 colon
LOX IMVI melanoma = system: LOX IMVI melanoma
EKVX NSCLC = system: EKVX NSCLC
TK-10 renal = system: TK-10 renal
PC-3 prostate = system: PC-3 prostate
BT-549 breast = system: BT-549 breast

## COc1ccc2c(c1)c(Cc1c(C)n(C)c3ccc(OC)cc13)c(C)n2C
NCI-H226 lung
  TGI: > 100 µM
SF-268 CNS
  TGI: > 100 µM
UO-31 renal
  TGI: > 100 µM
OVCAR-8 ovarian
  TGI: > 100 µM
SR leukemia
  TGI: > 100 µM
HT29 colon
  TGI: > 100 µM
LOX IMVI melanoma
  TGI: > 100 µM
EKVX NSCLC
  TGI: > 100 µM
TK-10 renal
  TGI: > 100 µM

## CSC1=N/C(=C\c2cccs2)C(=O)N1CN1CCCCC1
NCI-H226 lung
  TGI: > 100 µM
PC-3 prostate
  TGI: > 100 µM
SF-268 CNS
  TGI: > 100 µM
UO-31 renal
  TGI: > 100 µM
OVCAR-8 ovarian
  TGI: > 100 µM
SR leukemia
  TGI: > 100 µM
HT29 colon
  TGI: > 100 µM
LOX IMVI melanoma
  TGI: 75.6 µM
EKVX NSCLC
  TGI: > 100 µM
TK-10 renal
  TGI: > 100 µM

## C/C(C=O)=C1\C(O)C[C@]1(C)C1CC(C)(C)CC1O (stereo not given in full)
NCI-H226 lung
  TGI: > 100 µM
SF-268 CNS
  TGI: > 100 µM
UO-31 renal
  TGI: > 100 µM
OVCAR-8 ovarian
  TGI: > 100 µM
SR leukemia
  TGI: > 100 µM
HT29 colon
  TGI: > 100 µM
LOX IMVI melanoma
  TGI: > 100 µM
EKVX NSCLC
  TGI: > 100 µM
TK-10 renal
  TGI: > 100 µM

## O=C(CCN(CCO)CCO)Nc1ccc2c(c1)C(=O)c1ccc(NC(=O)CCN(CCO)CCO)cc1C2=O
NCI-H226 lung
  TGI: 44.2 µM
SF-268 CNS
  TGI: 60.6 µM
UO-31 renal
  TGI: 22.1 µM
OVCAR-8 ovarian
  TGI: > 100 µM
SR leukemia
  TGI: > 100 µM
HT29 colon
  TGI: > 100 µM
LOX IMVI melanoma
  TGI: 56.5 µM
EKVX NSCLC
  TGI: 55 µM
TK-10 renal
  TGI: > 100 µM

## C1CSCC2(COC2)CS1
NCI-H226 lung
  TGI: > 100 µM
PC-3 prostate
  TGI: > 100 µM
SF-268 CNS
  TGI: > 100 µM
UO-31 renal
  TGI: > 100 µM
OVCAR-8 ovarian
  TGI: > 100 µM
SR leukemia
  TGI: > 100 µM
HT29 colon
  TGI: > 100 µM
LOX IMVI melanoma
  TGI: > 100 µM
TK-10 renal
  TGI: > 100 µM

## CCOc1ccc(NCC(=O)N2CC(=O)Nc3ccccc32)cc1
NCI-H226 lung
  TGI: > 100 µM
SF-268 CNS
  TGI: > 100 µM
UO-31 renal
  TGI: > 100 µM
OVCAR-8 ovarian
  TGI: > 100 µM
SR leukemia
  TGI: > 100 µM
HT29 colon
  TGI: > 100 µM
LOX IMVI melanoma
  TGI: > 100 µM
EKVX NSCLC
  TGI: > 100 µM
TK-10 renal
  TGI: > 100 µM

## N#Cc1cnn2c1n[n+]([O-])c1ccc(Cl)cc12
NCI-H226 lung
  TGI: 49.7 µM
PC-3 prostate
  TGI: 32.1 µM
SF-268 CNS
  TGI: > 40.3 µM
UO-31 renal
  TGI: 21.7 µM
BT-549 breast
  TGI: 25.4 µM
OVCAR-8 ovarian
  TGI: > 42.9 µM
HT29 colon
  TGI: 21.7 µM
LOX IMVI melanoma
  TGI: 8.51 µM
EKVX NSCLC
  TGI: 7.24 µM
TK-10 renal
  TGI: > 100 µM

## CCOC(=O)[C@H]1C[C@@H](C(=O)c2ccccc2)N2N=C(c3ccc(Br)cc3)C=C[C@H]12
NCI-H226 lung
  TGI: > 100 µM
PC-3 prostate
  TGI: > 100 µM
SF-268 CNS
  TGI: > 100 µM
UO-31 renal
  TGI: > 100 µM
BT-549 breast
  TGI: > 100 µM
OVCAR-8 ovarian
  TGI: > 100 µM
SR leukemia
  TGI: > 100 µM
LOX IMVI melanoma
  TGI: > 100 µM
TK-10 renal
  TGI: > 100 µM

## COc1ccc(NS(=O)CCc2ccccc2)cc1 (stereo not given)
NCI-H226 lung
  TGI: > 100 µM
SF-268 CNS
  TGI: > 100 µM
UO-31 renal
  TGI: > 100 µM
OVCAR-8 ovarian
  TGI: > 100 µM
SR leukemia
  TGI: > 100 µM
HT29 colon
  TGI: > 100 µM
LOX IMVI melanoma
  TGI: > 100 µM
EKVX NSCLC
  TGI: > 100 µM
TK-10 renal
  TGI: > 100 µM

## CCn1c(=O)c2c(=O)[nH][nH]c2c2ccccc21
NCI-H226 lung
  TGI: > 100 µM
PC-3 prostate
  TGI: > 100 µM
UO-31 renal
  TGI: > 100 µM
BT-549 breast
  TGI: > 100 µM
OVCAR-8 ovarian
  TGI: > 100 µM
SR leukemia
  TGI: > 100 µM
HT29 colon
  TGI: > 100 µM
LOX IMVI melanoma
  TGI: > 100 µM
EKVX NSCLC
  TGI: > 100 µM
TK-10 renal
  TGI: > 100 µM

## Clc1cc(Cl)cc(N2N=C(c3cccc(Nc4ccncc4)c3)CC2c2ccccc2)c1 (stereo not given)
NCI-H226 lung
  GI50: 14 µM
  TGI: 38.7 µM
PC-3 prostate
  GI50: 1.87 µM
  TGI: 5.15 µM
SF-268 CNS
  GI50: 1.99 µM
  TGI: 4.63 µM
BT-549 breast
  GI50: 6.23 µM
  TGI: 28.4 µM
OVCAR-8 ovarian
  GI50: 2.07 µM
  TGI: 4.56 µM
HT29 colon
  GI50: 1.8 µM
  TGI: 3.73 µM
EKVX NSCLC
  GI50: 1.7 µM
  TGI: 4.23 µM
TK-10 renal
  GI50: 2.02 µM
  TGI: 3.98 µM

## O=C1C(NCCc2cc(Br)c(O)c(Br)c2)=CC(=O)c2ncccc21
NCI-H226 lung
  TGI: 8.52 µM
PC-3 prostate
  TGI: > 100 µM
SF-268 CNS
  TGI: 40.3 µM
UO-31 renal
  TGI: 41.6 µM
OVCAR-8 ovarian
  TGI: 32.7 µM
SR leukemia
  TGI: 6.46 µM
HT29 colon
  TGI: > 30.6 µM
LOX IMVI melanoma
  TGI: 8.69 µM
EKVX NSCLC
  TGI: 30.7 µM
TK-10 renal
  TGI: 73 µM

## CC(C#N)Nc1ccc(Oc2ccc(C(C)(C)c3ccc(Oc4ccc(NC(C)C#N)cc4)cc3)cc2)cc1 (stereo not given)
NCI-H226 lung
  TGI: > 100 µM
PC-3 prostate
  TGI: > 100 µM
SF-268 CNS
  TGI: > 100 µM
UO-31 renal
  TGI: > 100 µM
BT-549 breast
  TGI: > 100 µM
OVCAR-8 ovarian
  TGI: > 100 µM
HT29 colon
  TGI: > 100 µM
LOX IMVI melanoma
  TGI: > 100 µM
EKVX NSCLC
  TGI: > 100 µM
TK-10 renal
  TGI: > 100 µM

## CC1CN=C(NCc2ccccc2)S1 (stereo not given)
NCI-H226 lung
  TGI: > 100 µM
SF-268 CNS
  TGI: > 100 µM
UO-31 renal
  TGI: > 100 µM
BT-549 breast
  TGI: > 100 µM
SR leukemia
  TGI: > 100 µM
HT29 colon
  TGI: > 100 µM
LOX IMVI melanoma
  TGI: > 100 µM
EKVX NSCLC
  TGI: > 100 µM
TK-10 renal
  TGI: > 100 µM

## COC(=O)n1c(=O)nc2c3c(ncn21)Oc1c(c(-c2ccccc2)nn1-c1ccccc1)C3c1ccc(Cl)cc1 (stereo not given)
NCI-H226 lung
  TGI: 3.42 µM
PC-3 prostate
  TGI: 2.94 µM
UO-31 renal
  TGI: 3.28 µM
BT-549 breast
  TGI: 17.7 µM
SR leukemia
  TGI: 4.31 µM
HT29 colon
  TGI: 2.9 µM
LOX IMVI melanoma
  TGI: 2.79 µM
TK-10 renal
  TGI: 3.37 µM

## CC(SC1=CC(=O)c2c(Cl)ccc(O)c2C1=O)C(=O)O (stereo not given)
NCI-H226 lung
  TGI: 57.3 µM
SF-268 CNS
  TGI: 44.2 µM
OVCAR-8 ovarian
  TGI: 36.3 µM
SR leukemia
  TGI: 37.9 µM
LOX IMVI melanoma
  TGI: 21.7 µM
EKVX NSCLC
  TGI: 39.9 µM
TK-10 renal
  TGI: 35.3 µM

## c1ccc(C2=NN(c3ccccc3)C3(S2)SC(c2ccccc2)(c2ccccc2)c2ccccc23)cc1 (stereo not given)
NCI-H226 lung
  TGI: > 100 µM
SF-268 CNS
  TGI: > 100 µM
UO-31 renal
  TGI: > 100 µM
OVCAR-8 ovarian
  TGI: > 100 µM
HT29 colon
  TGI: > 100 µM
LOX IMVI melanoma
  TGI: > 100 µM
EKVX NSCLC
  TGI: > 100 µM
TK-10 renal
  TGI: > 100 µM

## CC(=O)Nc1ccc(-c2nnc(SCC(=O)Nc3ccccc3Cl)o2)cc1
NCI-H226 lung
  TGI: > 100 µM
SF-268 CNS
  TGI: > 100 µM
UO-31 renal
  TGI: > 100 µM
OVCAR-8 ovarian
  TGI: > 100 µM
HT29 colon
  TGI: > 100 µM
LOX IMVI melanoma
  TGI: > 100 µM
TK-10 renal
  TGI: > 100 µM

## CCCOC(=O)c1cc(C(=CCC[C@H]2CC[C@@]3(C)[C@@H](CC[C@@H]4[C@@H]3CC[C@]3(C)[C@@H](C(C)CCCC(C)C)CC[C@@H]43)C2)c2cc(Cl)c(O)c(C(=O)OCCC)c2)cc(Cl)c1O (stereo not given in full)
NCI-H226 lung
  TGI: > 50 µM
PC-3 prostate
  TGI: > 50 µM
SF-268 CNS
  TGI: > 50 µM
BT-549 breast
  TGI: > 50 µM
OVCAR-8 ovarian
  TGI: > 50 µM
HT29 colon
  TGI: > 50 µM
LOX IMVI melanoma
  TGI: > 50 µM
EKVX NSCLC
  TGI: > 50 µM

## Cc1nc2ccccc2nc1NS(=O)(=O)c1ccc(N)cc1
NCI-H226 lung
  TGI: > 100 µM
SF-268 CNS
  TGI: > 100 µM
UO-31 renal
  TGI: > 100 µM
OVCAR-8 ovarian
  TGI: > 100 µM
SR leukemia
  TGI: > 100 µM
HT29 colon
  TGI: > 100 µM
LOX IMVI melanoma
  TGI: > 100 µM
EKVX NSCLC
  TGI: > 100 µM
TK-10 renal
  TGI: > 100 µM

## Cc1ccc(S(=O)(=O)N/N=C2\C(=O)C3CC2C(Cl)C3Cl)cc1 (stereo not given)
NCI-H226 lung
  TGI: > 100 µM
SF-268 CNS
  TGI: > 100 µM
UO-31 renal
  TGI: > 100 µM
OVCAR-8 ovarian
  TGI: > 100 µM
SR leukemia
  TGI: > 100 µM
HT29 colon
  TGI: > 100 µM
LOX IMVI melanoma
  TGI: > 100 µM
TK-10 renal
  TGI: > 100 µM

## O=S(=O)(CC1=NC2C=CC=CC2N=C1)NCc1ccccc1 (stereo not given)
NCI-H226 lung
  TGI: > 100 µM
SF-268 CNS
  TGI: > 100 µM
OVCAR-8 ovarian
  TGI: > 100 µM
HT29 colon
  TGI: > 100 µM
LOX IMVI melanoma
  TGI: > 100 µM
EKVX NSCLC
  TGI: > 100 µM
TK-10 renal
  TGI: > 100 µM
